Consider twelve molecules from publication PMC7617969, “Carboxylic Acid Bioisosteres Boost Nurr1 Agonist Selectivity” (Journal of medicinal chemistry, 2025).

Where “and” joins values, the source holds several entries; their conditions need not be identical. Identical values can stand only once. Like-named read-outs stand apart in the source and are kept apart here.

In experiment [1] the target is T1, DHODH (Homo sapiens, UniProt Q02127).
T1 construct: using an N-terminally truncated recombinant DHODH enzyme as described previously[20]
The note with it: recombinant human DHODH; cited from earlier work.

Experiment [2] addresses T2, Nurr1 (Homo sapiens, UniProt P43354).
T2 construct: expressed in transfected cells; host or cells: HEK293T
Put plainly: Gal4-Nurr1 hybrid reporter gene assay. The conditions noted are these: for selectivity index DHODH/Nurr1: IC50(DHODH) / EC50(Nurr1); for EC50 / max. activation (Nurr1): Gal4-Nurr1 hybrid reporter gene assay; for EC50: HEK293T cells, mean ± S.E.M., n ≥ 3; for max. activation (Nurr1): fold activation vs untreated control; for efficacy_NR4A2: supplementary csv, max. activation in %. Format: cell-based. A general note: A reporter such as luciferase makes a cellular process visible.

Experiment [3] has as its target T2, Nurr1. The note with it: cited from earlier work; for efficacy_NR4A2: supplementary csv.
Experiment [4] has as its target T1, DHODH. In words: DHODH inhibition colorimetric assay on recombinant human protein. The conditions noted are these: recombinant human DHODH; for IC50: colorimetric, mean ± S.E.M., n ≥ 3, read-out: IC50 (DHODH). The class given is biochemical.
[5] abbreviates: Gal4-Nurr1 hybrid reporter gene assay.

T1 sequence (Q02127 31-395): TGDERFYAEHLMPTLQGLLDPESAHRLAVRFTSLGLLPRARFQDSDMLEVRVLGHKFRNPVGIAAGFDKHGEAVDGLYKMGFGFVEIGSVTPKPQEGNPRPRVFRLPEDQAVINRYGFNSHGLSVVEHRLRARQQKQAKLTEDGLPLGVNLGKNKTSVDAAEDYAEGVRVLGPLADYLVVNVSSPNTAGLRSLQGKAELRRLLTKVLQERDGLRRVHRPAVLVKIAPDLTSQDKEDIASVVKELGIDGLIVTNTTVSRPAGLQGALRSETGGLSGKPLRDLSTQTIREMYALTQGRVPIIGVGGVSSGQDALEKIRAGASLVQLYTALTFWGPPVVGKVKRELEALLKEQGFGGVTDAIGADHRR
T2 sequence (P43354 360-595 limits assumed): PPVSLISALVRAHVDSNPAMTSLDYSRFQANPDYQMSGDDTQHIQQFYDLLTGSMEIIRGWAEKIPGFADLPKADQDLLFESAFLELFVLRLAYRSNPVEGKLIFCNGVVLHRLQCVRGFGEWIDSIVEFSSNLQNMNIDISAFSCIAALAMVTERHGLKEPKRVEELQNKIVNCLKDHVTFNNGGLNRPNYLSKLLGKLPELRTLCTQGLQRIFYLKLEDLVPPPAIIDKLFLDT

As usually defined, the IC50 is the concentration at which inhibition is half-maximal. A word on the EC50: it is the concentration at which the effect is half-maximal. With `[2H]C([2H])([2H])Oc1cccc(-c2cc(F)c(NC(=O)C3=C(c4noc(=O)[nH]4)CCC3)c(F)c2)c1` [compound 8], at DHODH [1], the IC50 is 9260 nM and 9000 nM. For the same molecule, the “selectivity index DHODH/Nurr1” value on Nurr1 [2] was found to be 9. Besides, on Nurr1 [3] (setting [5]), the EC50 is 1000 ± 100 nM and the “max. activation (Nurr1)” value was 2.0±0.1 fold. Also, the efficacy_NR4A2 on Nurr1 [3] was 200%.
`[2H]C([2H])([2H])Oc1cccc(-c2c(F)c(F)c(NC(=O)C3=C(C(=O)O)CCC3)c(F)c2F)c1` [compound 10]: the “max. activation (Nurr1)” value at Nurr1 [3] (setting [5]) is 1.9±0.1 fold. In addition, on Nurr1 [3], the efficacy_NR4A2 was 188%.
With `[2H]C([2H])([2H])Oc1cccc(-c2c(F)c(F)c(NC(=O)c3cscc3-c3noc(=O)[nH]3)c(F)c2F)c1` [compound 21, 4-(5-Oxo-4,5-dihydro-1,2,4-oxadiazol-3-yl)-N-{2,3,5,6-tetrafluoro-3’-(^2H3)methoxy-[1,1'-biphenyl]-4-yl}thiophene-3-carboxamide], on DHODH [4], the IC50 came out at 400 ± 60 nM. On Nurr1 [2], the EC50 is 30 ± 10 nM, the “max. activation (Nurr1)” value turned out to be 2.2±0.1 fold, the “selectivity index DHODH/Nurr1” value amounted to 13 and the efficacy_NR4A2 is given as 220%.
Take `[2H]C([2H])([2H])Oc1cccc(-c2c(F)c(F)c(NC(=O)c3cscc3-c3nn[nH]n3)c(F)c2F)c1` [compound 22, N-{2,3,5,6-Tetrafluoro-3’-(^2H3)methoxy-[1,1'-biphenyl]-4-yl}-4-(2H-tetrazol-5-yl)thiophene-3-carboxamide]: the IC50 at DHODH [4] stood at 43 ± 6 nM. For the same molecule, on Nurr1 [2], the midpoint of the response, the EC50, lay at 11 ± 2 nM; the “max. activation (Nurr1)” value was 2.5±0.2 fold; the “selectivity index DHODH/Nurr1” value is 3.9; the efficacy_NR4A2 amounted to 250%.
As for `[2H]C([2H])([2H])Oc1cccc(-c2c(F)c(F)c(NC(=O)c3cscc3-c3noc(=S)[nH]3)c(F)c2F)c1` [compound 23, N-{2,3,5,6-Tetrafluoro-3’-(^2H3)methoxy-[1,1'-biphenyl]-4-yl}-4-(5-thioxo-4,5-dihydro-1,2,4-oxadiazol-3-yl)thiophene-carboxamide], at DHODH [4], the half-maximal inhibitory concentration (IC50) worked out at 62 ± 4 nM. Moreover, on Nurr1 [2], the EC50 was determined as 36 ± 3 nM, the “max. activation (Nurr1)” value came out at 1.77±0.04 fold, the “selectivity index DHODH/Nurr1” value turned out to be 1.7 and the efficacy_NR4A2 was found to be 177%.
For the molecule `[2H]C([2H])([2H])Oc1cccc(-c2c(F)c(F)c(NC(=O)c3cscc3-c3nc(=O)on3C)c(F)c2F)c1` [compound 24, 4-(2-Methyl-5-oxo-2,5-dihydro-1,2,4-oxadiazol-3-yl)-N-{2,3,5,6-tetrafluoro-3’-(^2H3)methoxy-[1,1'-biphenyl]-4-yl}thiophene-3-carboxamide], the IC50 on DHODH [4] was found to be 11100 ± 600 nM. Besides, on Nurr1 [2], the EC50 came out at 2600 ± 300 nM, the “max. activation (Nurr1)” value came out at 1.9±0.2 fold, the “selectivity index DHODH/Nurr1” value was 4.2 and the efficacy_NR4A2 is on record as 190%.
A word on the inhibition: it is the share of the control response that was lost under treatment. For the molecule `[2H]C([2H])([2H])Oc1cccc(-c2c(F)c(F)c(NC(=O)c3cscc3-c3nc(=S)on3C)c(F)c2F)c1` [compound 25, 4-(2-Methyl-5-thioxo-2,5-dihydro-1,2,4-oxadiazol-3-yl)-N-{2,3,5,6-tetrafluoro-3’-(^2H3)methoxy-[1,1'-biphenyl]-4-yl}thiophene-3-carboxamide], the inhibition at 100 µM on DHODH [4] (100 μM) was 40 ± 8%. Moreover, at Nurr1 [2], a half-maximal effect (EC50) was put at 900 ± 100 nM, the “max. activation (Nurr1)” value worked out at 2.3±0.2 fold, the “selectivity index DHODH/Nurr1” value is reported as over 100 and the efficacy_NR4A2 was 230%.
Turning to `[2H]C([2H])([2H])Oc1cccc(-c2c(F)c(F)c(NC(=O)c3cscc3-c3n[nH]c(=O)o3)c(F)c2F)c1` [compound 26, 4-(5-Oxo-4,5-dihydro-1,3,4-oxadiazol-2-yl)-N-{2,3,5,6-tetrafluoro-3’-(^2H3)methoxy-[1,1'-biphenyl]-4-yl}thiophene-3-carboxamide], the IC50 at DHODH [4] turned out to be 100 ± 10 nM. Further, at Nurr1 [2], the concentration for a half-maximal effect (EC50) was 17 ± 2 nM, the “max. activation (Nurr1)” value was 1.8±0.1 fold, the “selectivity index DHODH/Nurr1” value is 5.9 and the efficacy_NR4A2 is 180%.
For `[2H]C([2H])([2H])Oc1cccc(-c2c(F)c(F)c(NC(=O)c3cscc3-c3n[nH]c(=S)o3)c(F)c2F)c1` [compound 27, N-(2,3,5,6-Tetrafluoro-3’-(^2H3)methoxy-[1,1'-biphenyl]-4-yl)-4-{5-thioxo-4,5-dihydro-1,3,4-oxadiazol-2-yl}thiophene-3-carboxamide], the IC50 on DHODH [4] was found to be 960 ± 90 nM. On Nurr1 [2], the concentration for a half-maximal effect (EC50) turned out to be 160 ± 50 nM, the “max. activation (Nurr1)” value was determined as 1.7±0.1 fold, the “selectivity index DHODH/Nurr1” value is 6.0 and the efficacy_NR4A2 came to 170%.
Regarding `[2H]C([2H])([2H])Oc1cccc(-c2c(F)c(F)c(NC(=O)c3cscc3C3=NOS(=O)N3)c(F)c2F)c1` (stereo not shown) [compound 28, 4-(2-Oxido-3H-1,2,3,5-oxathiadiazol-4-yl)-N-{2,3,5,6-tetrafluoro-3’-(^2H3)methoxy-[1,1'-biphenyl]-4-yl}thiophene-3-carboxamide], the half-inhibitory concentration (IC50) on DHODH [4] came to 1200 ± 200 nM. Besides, on Nurr1 [2], the EC50 is 39 ± 5 nM, the “max. activation (Nurr1)” value was 2.4±0.1 fold, the “selectivity index DHODH/Nurr1” value amounted to 30 and the efficacy_NR4A2 is on record as 240%.
As for `[2H]C([2H])([2H])Oc1cccc(-c2c(F)c(F)c(NC(=O)C3=C(c4nn[nH]n4)COC3)c(F)c2F)c1` [compound 30, N-{2,3,5,6-Tetrafluoro-3’-(^2H3)methoxy-[1,1'-biphenyl]-4-yl}-4-(2H-tetrazol-5-yl)-2,5-dihydrofuran-3-carboxamide], at DHODH [4], the IC50 was 3000 ± 1000 nM. In addition, at Nurr1 [2], the “Nurr1 preference/selectivity over DHODH” value is 14 fold, the EC50 is 220 nM, the “max. activation (Nurr1)” value worked out at 2.0±0.2 fold and the “selectivity index DHODH/Nurr1” value came out at 13.6. Further, the efficacy_NR4A2 on Nurr1 [2] worked out at 200%.
With `[2H]C([2H])([2H])Oc1cccc(-c2c(F)c(F)c(NC(=O)c3ccccc3-c3nn[nH]n3)c(F)c2F)c1` [compound 31, N-{2,3,5,6-Tetrafluoro-3’-(^2H3)methoxy-[1,1'-biphenyl]-4-yl}-2-(2H-tetrazol-5-yl)benzamide], the concentration for half-maximal inhibition (IC50) on DHODH [4] worked out at 260 ± 40 nM. Moreover, on Nurr1 [2], the EC50 worked out at 140 ± 10 nM, the “max. activation (Nurr1)” value turned out to be 1.9±0.1 fold, the “selectivity index DHODH/Nurr1” value is 1.9 and the efficacy_NR4A2 worked out at 190%.
